Laboratory results reported in the supplement of paper PMC10307832.

Legend:
Assay in all cases: relative viability (nuclei count vs DMSO), 5 days (fraction); higher = more cells survive
Vandetanib + OSI-027 = compound: COc1cc2/c(=N/c3ccc(Br)cc3F)nc[nH]c2cc1OCC1CCN(C)CC1 [Vandetanib] + COc1cccc2cc(-c3nc([C@H]4CC[C@H](C(=O)O)CC4)n4ncnc(N)c34)[nH]c12 [OSI-027] (partner 0.5 µM)
Summary of the method: (§1)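 Relative viability equals treated-well nuclei counts divided by vehicle-well nuclei counts. Counts came from 4× images of lung cancer cell lines grown in 1536-well plates for 5 days after pin-tool dosing on the day after seeding. Dosing used one drug alone or a fixed anchor-drug dose plus five library-drug doses (not always all listed) in √10 steps, and values are medians of duplicate plates.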

NVP-TAE684 + Tozasertib = compound: COc1cc(N2CCC(N3CCN(C)CC3)CC2)ccc1Nc1ncc(Cl)c(Nc2ccccc2S(=O)(=O)C(C)C)n1 [NVP-TAE684] + Cc1cc(Nc2cc(N3CCN(C)CC3)nc(Sc3ccc(NC(=O)C4CC4)cc3)n2)n[nH]1 [Tozasertib] (partner 0.1 µM)
Summary of the method: as §1

[1] = compound: C1=CC=C2C(=C1)N=C(S2)C(C#N)C3=NC(=NC=C3)NCCC4=CN=CC=C4 + Cc1nc(NC(=O)N2CCC[C@H]2C(N)=O)sc1-c1ccnc(C(C)(C)C(F)(F)F)c1 [Alpelisib] (partner 2 µM)
Summary of the method: as §1

CUDC-101 + Tozasertib = compound: C#Cc1cccc(Nc2ncnc3cc(OC)c(OCCCCCCC(=O)NO)cc23)c1 [CUDC-101] + Cc1cc(Nc2cc(N3CCN(C)CC3)nc(Sc3ccc(NC(=O)C4CC4)cc3)n2)n[nH]1 [Tozasertib] (partner 0.1 µM)
Summary of the method: as §1

Cell Line | relative viability (Vandetanib + OSI-027; first compound 0.02 µM) | relative viability (Vandetanib + OSI-027; first compound 0.06325 µM) | relative viability (Vandetanib + OSI-027; first compound 0.2 µM) | relative viability (Vandetanib + OSI-027; first compound 0.6325 µM) | relative viability (Vandetanib + OSI-027; first compound 2 µM) | relative viability (NVP-TAE684 + Tozasertib; first compound 0.2 µM) | relative viability (NVP-TAE684 + Tozasertib; first compound 0.6325 µM) | relative viability (NVP-TAE684 + Tozasertib; first compound 2 µM) | relative viability ([1]; first compound 0.005 µM) | relative viability ([1]; first compound 0.01581 µM) | relative viability ([1]; first compound 0.05 µM) | relative viability ([1]; first compound 0.1581 µM) | relative viability ([1]; first compound 0.5 µM) | relative viability (CUDC-101 + Tozasertib; first compound 0.01 µM) | relative viability (CUDC-101 + Tozasertib; first compound 0.03162 µM) | relative viability (CUDC-101 + Tozasertib; first compound 0.1 µM) | relative viability (CUDC-101 + Tozasertib; first compound 0.3162 µM) | relative viability (CUDC-101 + Tozasertib; first compound 1 µM)
NCI-H358 | 0.706 | 0.569 | 0.678 | 0.504 | 0.307 | 0.0952 | 0.0896 | 0.0684 | 0.603 | 0.795 | 0.802 | 0.981 | 0.744 | 0.103 | 0.117 | 0.127 | 0.101 | 0.114
NCI-H441 | 0.551 | 0.619 | 0.713 | 0.643 | 0.566 | 0.608 | 0.554 | 0.266 | – | 0.623 | 0.803 | 1.27 | 0.487 | 0.536 | 0.683 | 0.645 | 0.599 | 0.435
NCI-H460 | 0.604 | 0.611 | 0.615 | 0.583 | 0.586 | 0.671 | 0.498 | 0.4 | – | 0.508 | 0.503 | 0.579 | 0.309 | 0.379 | 0.393 | 0.396 | 0.629 | 0.373
NCI-H520 | 0.219 | 0.226 | 0.311 | 0.268 | 0.271 | 0.408 | 0.466 | 0.358 | 0.508 | 1.09 | 0.793 | 1.13 | 0.665 | 0.443 | 0.434 | 0.449 | 0.401 | 0.304
NCI-H596 | 0.751 | 0.674 | 0.665 | 0.726 | 0.74 | 1.17 | 0.883 | 0.861 | 0.401 | 0.576 | 0.44 | 0.541 | 0.384 | 0.632 | 0.716 | 0.871 | 0.917 | 0.819
NCI-H647 | 0.572 | 0.554 | 0.73 | 0.596 | 0.674 | 0.0998 | 0.288 | 0.115 | – | 1.18 | 0.876 | 1.41 | 0.599 | 0.235 | 0.338 | 0.266 | 0.223 | 0.211
NCI-H650 | 0.491 | 0.531 | – | 0.521 | 0.447 | 0.669 | 0.69 | 0.498 | 0.859 | 1.22 | 1.04 | 1.18 | 1.2 | 0.844 | 0.733 | 0.639 | 0.599 | 0.369
NCI-H661 | 0.721 | 0.66 | 0.668 | 0.58 | 0.629 | 0.373 | 0.341 | 0.352 | 0.632 | 0.482 | 0.61 | 0.841 | 0.798 | 0.356 | 0.331 | 0.362 | 0.342 | 0.248
NCI-H727 | 0.533 | 0.551 | 0.536 | 0.545 | 0.446 | 0.495 | 0.532 | 0.32 | 0.508 | 0.508 | 0.566 | 0.565 | 0.409 | 0.56 | 0.556 | 0.56 | 0.673 | 0.407
NCI-H838 | 0.409 | 0.379 | 0.37 | 0.333 | 0.424 | 0.311 | 0.233 | 0.226 | 0.841 | 0.965 | 0.959 | 0.961 | 0.852 | 0.265 | 0.266 | 0.329 | 0.265 | 0.264
NCI-H1355 | 0.446 | 0.362 | 0.386 | 0.5 | 0.387 | 0.521 | 0.471 | 0.301 | 0.852 | 0.901 | 0.823 | 0.883 | 0.633 | 0.518 | 0.539 | 0.5 | 0.544 | 0.384
NCI-H1395 | 0.614 | 0.65 | 0.665 | 0.526 | 0.588 | 0.819 | 0.699 | 0.626 | 1.14 | – | 0.939 | 1.04 | 1.21 | 0.809 | 0.717 | 0.747 | 0.744 | 0.627
NCI-H1437 | 0.835 | 0.899 | 0.868 | 0.886 | 0.964 | 0.433 | 0.396 | 0.311 | 0.797 | 1.11 | 0.962 | 1.09 | 0.695 | 0.41 | 0.332 | 0.41 | 0.429 | 0.361
NCI-H1651 | 0.595 | 0.703 | 0.667 | 0.616 | 0.628 | 0.931 | 0.695 | 0.576 | 0.667 | 1.07 | 1.12 | 1.11 | 0.73 | 0.622 | 0.712 | 0.613 | 0.788 | 0.585
NCI-H1666 | 0.858 | 0.765 | 0.836 | 0.788 | 0.751 | 0.569 | 0.63 | 0.488 | 0.915 | 0.971 | 0.876 | 1.11 | 0.892 | 0.594 | 0.564 | 0.676 | 0.565 | 0.507
NCI-H1734 | 0.576 | 0.605 | 0.543 | 0.611 | 0.652 | 0.283 | 0.261 | 0.196 | 0.695 | 0.729 | 0.518 | 0.726 | 0.714 | 0.256 | 0.257 | 0.23 | 0.216 | 0.202
NCI-H1755 | 0.688 | 0.649 | 0.757 | 0.689 | 0.672 | 0.601 | 0.585 | 0.473 | 0.839 | 1 | 0.959 | 1.03 | 0.849 | 0.478 | 0.563 | 0.572 | 0.602 | 0.584
NCI-H1793 | 0.302 | 0.25 | 0.238 | 0.292 | 0.274 | 0.346 | 0.323 | 0.25 | 0.692 | 0.521 | 0.55 | 0.763 | 0.739 | 0.321 | 0.237 | 0.325 | 0.293 | 0.375
